The values that follow come from patent publication US20240173440A1, “HIGH PURITY COPPER RADIOPHARMACEUTICAL COMPOSITIONS AND DIAGNOSTIC AND THERAPEUTIC USES THEREOF” (Nuclidium AG, priority 2022, published 2024).

The structures appear in SMILES notation. Read-outs that look alike come from different tables or passages of the source.

Data set [1] is described as follows: Pharmacokinetics (biodistribution 1-24 h) in non-tumor bearing mice. The data set is classed as in vivo. The note with it: for tissue uptake at 1 h / tissue uptake at 4 h / tissue uptake at 12 h / tissue uptake at 24 h: female, BALB/c, mouse, 200 umol, total radioactivity; for tissue uptake at 1 h: 1 hour after injection; for tissue uptake at 1 h / tissue uptake at 4 h: ^61Cu; for tissue uptake at 4 h: 4 hours after injection; for tissue uptake at 12 h: 12 hours after injection; for tissue uptake at 12 h / tissue uptake at 24 h: ^64Cu; for tissue uptake at 24 h: 24 hours after injection. On the procedure: The biodistribution at the investigate time points was performed as described in the Example 9. The data were combined with the results obtained from the groups of xenografts at 1 hour and 4 hours p.i., as the biodistribution in nude mice was the same as in the healthy mice. The results were expressed as described in the Example 10.

Data set [2] can be described thus: Lipophilicity, log D by shake-flask method (1-octanol/PBS pH 7.4). The format is physicochemical. The note with it: Table 17, mean ± SD. As for the experimental part:
The radiotracer (1 μM) was added to a 50:50 pre-saturated mixture of 1-octanol and phosphate buffered saline (PBSpH 7.4). The solution was vortexed for 30 min and then centrifuged at 3,000 rpm to achieve a phase separation. Aliquots from each phase were collected and measured in a gamma-counter. The distribution coefficient was calculated as the average of the logarithmic values of the ratio between the radioactivity in the organic and the PBS phase.
Table 17. Lipophilicity expressed as the log distribution coefficient D (log D(Octanol/PBS pH7.4)) of ^61Cu-radiotracers versus ^68Ga-radiotracers (reference radiotracers).
In a pre-lubricated Eppendorf tube, a pre-saturated mixture of 500 μL of 1-octanol and 500 μL of PBS pH 7.4 (phosphate-buffered saline) were added. An aliquot of […] in 10 μL of the radioligand was added to this mixture, shaken for 30 min, and then centrifuged at 3000 rcf for 10 min to achieve phase separation. Aliquots of 100 μL were removed from the 1-octanol and from the PBS phases, and the activity was measured in a […]. The partition coefficient was calculated as the average log ratio value of the radioactivity in the organic fraction and PBS fraction.

Data set [3] relates to LNCaP xenografts. Nature of the data set: Quantitative biodistribution in LNCaP xenografted mice. The data set is classed as in vivo. The settings on record: LNCap xenograft mice, 1 h after injection.
Protocol: (§1) The mice were randomly distributed in groups and euthanized at 1 and at 4 hours post-injection. The organs of interest were collected, rinsed, blotted, weighed and counted in a gamma counter. The results are expressed as percentage of injected activity per gram (% IA/g), representing the mean±standard deviation of n=4-8 mice per group and they were obtained by extrapolation from counts of an aliquot taken from the injected solution as standard.
The biodistribution of the [^61Cu]Cu-NODAGA radiotracers was compared with the reference compounds used in patients under identical experimental conditions. The mice were randomly distributed in groups, injected with the radiotracer under investigation and euthanized at 1 and at 4 hours post-injection of the radiotracers under investigation. The organs of interest were collected, rinsed, blotted, weighed and counted in a gamma counter. The results are expressed as percentage of injected activity per gram (% IA/g), representing the mean±standard deviation of all mice per group and they were obtained by extrapolation from counts of an aliquot taken from the injected solution as standard.
Data set [4] is described as follows: in vivo. The note with it: athymic nude Foxn1+Foxn1+, mouse, iv, 200 umol, total radioactivity.
Protocol: The tumors were allowed to grow for 1-3 weeks before commencement of the experiments.
as §1
The mice were randomly distributed in groups, injected with the radiotracer under investigation and euthanized at 1 and at 4 hours post-injection of the radiotracers under investigation. The organs of interest were collected, rinsed, blotted, weighed and counted in a gamma counter. The results are expressed as percentage of injected activity per gram (% IA/g), representing the mean±standard deviation of all mice per group and they were obtained by extrapolation from counts of an aliquot taken from the injected solution as standard.
The mice were randomly distributed in groups and euthanized at 4 hours post-injection. The organs of interest were collected, rinsed, blotted, weighed, and their respective radioactivity was counted in a gamma counter.
The mark [5] stands for this setting: adrenal, read-out: Biodistribution Adrenal.
The mark [6] stands for this setting: blood, read-out: Biodistribution Blood.
The mark [7] stands for this setting: femur, read-out: Biodistribution Femur.
The mark [8] stands for this setting: heart, read-out: Biodistribution Heart.
Setting [9] is: intestine, read-out: Biodistribution Intestine.
Where [10] appears, read: kidneys, read-out: Biodistribution Kidneys.
The mark [11] stands for this setting: liver, read-out: Biodistribution Liver.
The mark [12] stands for this setting: lung, read-out: Biodistribution Lung.
Where [13] appears, read: muscle, read-out: Biodistribution Muscles.
Where [14] appears, read: pancreas, read-out: Biodistribution Pancreas.
The mark [15] stands for this setting: pituitary, read-out: Biodistribution Pituitary.
[16] abbreviates: spleen, read-out: Biodistribution Spleen.
Setting [17] is: stomach, read-out: Biodistribution Stomach.

Regarding `C[C@@H](O)[C@@H]1NC(=O)[C@H](CCCCN)NC(=O)[C@@H](Cc2c[nH]c3ccccc23)NC(=O)[C@H](Cc2ccc(O)cc2)NC(=O)[C@@H](NC(=O)[C@@H](Cc2ccccc2)NC(=O)CCC(C(=O)O)N2CCN(CC(=O)O)CCN(CC(=O)O)CC2)CSSC[C@@H](C(=O)N[C@H](CO)[C@@H](C)O)NC1=O` (single isomer, unassigned) [[^61/^64Cu]Cu-NODAGA-TOC, metal not drawn], the tissue uptake at 1 h in data set [1] (setting [5]) amounted to 1.06 ± 0.24 %ID/g; in data set [1] (setting [6]), 0.24 ± 0.08 %ID/g; in data set [1] (setting [7]), 0.45 ± 0.14 %ID/g; in data set [1] (setting [8]), 0.17 ± 0.03 %ID/g; in data set [1] (setting [9]), 0.96 ± 0.12 %ID/g; in data set [1] (setting [10]), 17.2 ± 4.46 %ID/g. Besides, the tissue uptake at 1 h in data set [1] (setting [11]) turned out to be 0.35 ± 0.08 %ID/g; in data set [1] (setting [12]), 1.07 ± 0.17 %ID/g; in data set [1] (setting [13]), 0.16 ± 0.05 %ID/g; in data set [1] (setting [14]), 2.71 ± 0.4 %ID/g; in data set [1] (setting [15]), 3.39 ± 1.11 %ID/g; in data set [1] (setting [16]), 0.23 ± 0.04 %ID/g. Besides, the tissue uptake at 1 h in data set [1] (setting [17]) amounted to 2.62 ± 0.48 %ID/g. Further, the tissue uptake at 4 h in data set [1] (setting [5]) was found to be 0.63 ± 0.22 %ID/g; in data set [1] (setting [6]) it was 0.04 ± 0.02 %ID/g; in data set [1] (setting [7]), 0.28 ± 0.11 %ID/g; in data set [1] (setting [8]), 0.07 ± 0.02 %ID/g; in data set [1] (setting [9]), 0.69 ± 0.19 %ID/g; in data set [1] (setting [10]) it was 7.64 ± 3.85 %ID/g. For the same compound, the tissue uptake at 4 h in data set [1] (setting [11]) worked out at 0.28 ± 0.08 %ID/g; in data set [1] (setting [12]) it was 0.5 ± 0.24 %ID/g; in data set [1] (setting [13]), 0.07 ± 0.03 %ID/g; in data set [1] (setting [14]), 0.6 ± 0.19 %ID/g; in data set [1] (setting [15]) it was 2.71 ± 1.84 %ID/g; in data set [1] (setting [16]), 0.1 ± 0.03 %ID/g. Further, the tissue uptake at 4 h in data set [1] (setting [17]) was 1.35 ± 0.26 %ID/g. In addition, the tissue uptake at 12 h in data set [1] (setting [6]) came to 0.04 ± 0.01 %ID/g; in data set [1] (setting [8]), 0.09 ± 0.02 %ID/g; in data set [1] (setting [13]), 0.02 ± 0.01 %ID/g; in data set [1] (setting [16]) it was 0.1 ± 0.02 %ID/g. Moreover, the tissue uptake at 24 h in data set [1] (setting [6]) was found to be 0.03 %ID/g; in data set [1] (setting [7]) it was 0.06 ± 0.01 %ID/g; in data set [1] (setting [8]), 0.07 ± 0.02 %ID/g; in data set [1] (setting [13]), 0.01 %ID/g; in data set [1] (setting [14]) it was 0.07 ± 0.01 %ID/g; in data set [1] (setting [16]) it was 0.07 ± 0.02 %ID/g. Further, the blood clearance result in data set [1] (healthy mice, 1 to 24 hours after injection) is “very fast blood clearance”.

`O=C([O-])CN(CCN(CC(=O)[O-])Cc1cc(CCC(=O)NCCCCCC(=O)NCCCC[C@H](NC(=O)N[C@@H](CCC(=O)O)C(=O)O)C(=O)O)ccc1[O-])Cc1cc(CCC(=O)O)ccc1[O-].[68Ga+3].[OH3+]` [[^68Ga]Ga-PSMA-11]: the “log D(O/PBS pH 7.4)” value in data set [2] (shake-flask) is −3.89 ± 0.19. Further, in data set [3], the “Biodistribution Adrenal” value is 19.2 ± 5.35 % IA/g, the “Biodistribution Blood” value turned out to be 0.25 ± 0.07 % IA/g, the “Biodistribution Bone” value turned out to be 3.69 ± 1.86 % IA/g and the “Biodistribution Heart” value is on record as 0.32 ± 0.10 % IA/g. For the same compound, in data set [3], the “Biodistribution Intestine” value was found to be 1.52 ± 0.60 % IA/g, the “Biodistribution Kidney” value is 159 ± 31 % IA/g, the “Biodistribution LNCaP-tumor” value came out at 10.2 ± 1.53 % IA/g and the “Biodistribution Liver” value was 0.54 ± 0.27 % IA/g. Besides, in data set [3], the “Biodistribution Lung” value is 1.43 ± 0.43 % IA/g, the “Biodistribution Muscle” value is given as 0.90 ± 0.36 % IA/g, the “Biodistribution Pancreas” value turned out to be 0.70 ± 0.12 % IA/g and the “Biodistribution Salivary gland” value turned out to be 1.56 ± 0.31 % IA/g. In data set [3], the “Biodistribution Spleen” value came to 6.38 ± 1.37 % IA/g, the “Biodistribution Stomach” value came to 0.69 ± 0.11 % IA/g, the “Ratio Tumor/Blood” value is 45.3 ± 19.7 and the “Ratio Tumor/Kidney” value is reported as 0.07 ± 0.02. In data set [3], the “Ratio Tumor/Liver” value worked out at 23.5 ± 12.5 and the “Ratio Tumor/Muscles” value was 13.6 ± 8.3.

With `C[C@@H](O)[C@@H]1NC(=O)[C@H](CCCCN)NC(=O)[C@@H](Cc2c[nH]c3ccccc23)NC(=O)[C@H](Cc2ccc(O)cc2)NC(=O)[C@@H](NC(=O)[C@@H](Cc2ccccc2)NC(=O)CCC(C(=O)O)N2CCN(CC(=O)O)CCN(CC(=O)O)CC2)CSSC[C@@H](C(=O)N[C@H](CO)[C@@H](C)O)NC1=O` (single isomer, unassigned) [[^68Ga]Ga-NODAGA-TOC, metal not drawn], in data set [2] (pH 7.4, shake-flask, read-out: log D(O/PBS pH 7.4)), the logD is -2.48 ± 0.3.

Turning to `C[C@@H](O)[C@@H]1NC(=O)[C@H](CCCCN)NC(=O)[C@@H](Cc2c[nH]c3ccccc23)NC(=O)[C@H](Cc2ccc(O)cc2)NC(=O)[C@@H](NC(=O)[C@@H](Cc2ccccc2)NC(=O)CCC(C(=O)O)N2CCN(CC(=O)O)CCN(CC(=O)O)CC2)CSSC[C@@H](C(=O)N[C@H](CO)[C@@H](C)O)NC1=O` (single isomer, unassigned) [[^61Cu]Cu-NODAGA-TOC, metal not drawn], the tissue uptake at 1 h came to 8.88 ± 3.19 %ID/g in data set [4] (Biodistribution HEK-SST2) and 12.5 ± 2.25 %ID/g in data set [4] (Biodistribution Kidney).
